The record followed here is ChEMBL document CHEMBL1671638, “Cloning, expression, and characterization of Babesia gibsoni dihydrofolate reductase-thymidylate synthase: inhibitory effect of antifolates on its catalytic activity and parasite proliferation” (Antimicrob Agents Chemother, 2008).

For assay [1], the system named is Babesia gibsoni. Put plainly: Antiparasitic activity against Babesia gibsoni infected in dog erythrocytes assessed as growth inhibition at 50 nM by Giemsa staining based microscopy. The class given is functional, organism-based.
A short description of assay [2]: (§1) Inhibition of Babesia gibsoni Dihydrofolate reductase-thymidylate synthase expressed in Escherichia coli BL21.
In assay [3] the test system is Babesia gibsoni. The description is as §1.
Assay [4] has as its system Babesia gibsoni. Put plainly: Antiparasitic activity against Babesia gibsoni infected in dog erythrocytes assessed as growth inhibition at 150 nM by Giemsa staining based microscopy. The class given is functional, organism-based.
In assay [5] the test system is Babesia gibsoni. Nature of the assay: Antiparasitic activity against Babesia gibsoni infected in dog erythrocytes assessed as growth inhibition at 20 uM by Giemsa staining based microscopy. Type of assay: functional, organism-based.
The subject of assay [6] is Babesia gibsoni. Nature of the assay: Antiparasitic activity against Babesia gibsoni infected in dog erythrocytes assessed as growth inhibition at 80 uM by Giemsa staining based microscopy. The class given is functional, organism-based.

Activity calls are given as the source filed them. No cut-off for these calls is given here.

By IC50 is commonly meant the concentration needed to halve the response being measured. For the molecule `CN(Cc1cnc2nc(N)nc(N)c2n1)c1ccc(C(=O)N[C@@H](CCC(=O)O)C(=O)O)cc1` [METHOTREXATE], the inhibition result in the assay on Babesia gibsoni [1] and in the assay with Babesia gibsoni [4] was “Active” throughout. The molecule further had an IC50 in assay [2] of 0.0686 µM. Also, in the assay on Babesia gibsoni [3], the inhibition result was “Dose-dependent effect”.
In assay [2], `COc1cc(Cc2cnc(N)nc2N)cc(OC)c1OC` [TRIMETHOPRIM] yielded an IC50 of 0.055 µM. In addition, the inhibition entry with Babesia gibsoni [3] is “Dose-dependent effect”. Besides, the result in the assay on Babesia gibsoni [5] and with Babesia gibsoni [6] was Active.
In assay [2], `CCc1nc(N)nc(N)c1-c1ccc(Cl)cc1` [PYRIMETHAMINE] yielded an IC50 of 0.05 µM. Also, the inhibition result with Babesia gibsoni [3] is “Dose-dependent effect”. For the same molecule, the result in the assay with Babesia gibsoni [5] and in the assay with Babesia gibsoni [6] was Active.
